Organism: Rattus norvegicus
Experiment: Open TG-GATES - Regimen: Daily Repeat
Format: toxicity, organism-based, Sprague-Dawley
Set-up: regimen Daily Repeat, gender Male, age 6 weeks
Conditions: in vivo, po, 0 mg/kg, route gavage, dose level Control; for APTT / Bas / Eos / Fbg / Hb / Ht / Lym / MCH / MCHC / MCV / Mono / Neu / PT / Plat / RBC / Ret / WBC: tissue Blood; for KIDNEY_L / KIDNEY_R / KIDNEY_TOTAL: tissue Kidney; for LIVER: tissue Liver; for A/G / ALP / ALT / AST / BUN / CRE / Ca / Cl / DBIL / GLC / IP / K / LDH / Na / PL / RALB / TBIL / TC / TG / TP / gamma-GTP: tissue Plasma

In the case of `Cc1cccc(C)c1OCC(C)N` (configuration not stated) [MEXILETINE], the TERMINAL_BW (72 h, time 3 day) was 240.8 g, the APTT (72 h, time 3 day) was 20.3 s and the Bas (72 h, time 3 day) was 0%. The Eos (72 h, time 3 day) was 0.8%, the Fbg (72 h, time 3 day) was 302.4 mg/dL and the Hb (72 h, time 3 day) was 12.6 g/dL. The Ht (72 h, time 3 day) was 39.4%, the Lym (72 h, time 3 day) was 81.6% and the MCH (72 h, time 3 day) was 19.9 pg. It also gave an MCHC (72 h, time 3 day) of 32.1%, an MCV (72 h, time 3 day) of 61.9 fL and a Mono (72 h, time 3 day) of 2.8%. It also gave a Neu (72 h, time 3 day) of 13.8%, a PT (72 h, time 3 day) of 15.8 s and a Plat (72 h, time 3 day) of 115 x10_4/uL. It also gave an RBC (72 h, time 3 day) of 636.6 x10_4/ul, a Ret (72 h, time 3 day) of 6.3% and a WBC (72 h, time 3 day) of 120.4 x10_2/uL. It also gave a KIDNEY_L (72 h, time 3 day) of 1.1 g, a KIDNEY_R (72 h, time 3 day) of 1.1 g and a KIDNEY_TOTAL (72 h, time 3 day) of 2.2 g. It also gave an LIVER (72 h, time 3 day) of 11.2 g, an A/G (72 h, time 3 day) of 1.3 and an ALP (72 h, time 3 day) of 1769.2 IU/L. For the same compound, the ALT (72 h, time 3 day) was 44.8 IU/L, the AST (72 h, time 3 day) was 72.2 IU/L and the BUN (72 h, time 3 day) was 15.6 mg/dL. The CRE (72 h, time 3 day) was 0.1 mg/dL, the Ca (72 h, time 3 day) was 10.4 mg/dL and the Cl (72 h, time 3 day) was 106 meq/L. For the same compound, the DBIL (72 h, time 3 day) was 0 mg/dL, the GLC (72 h, time 3 day) was 201.2 mg/dL and the IP (72 h, time 3 day) was 7.6 mg/dL. For the same compound, the K (72 h, time 3 day) was 4.4 meq/L, the LDH (72 h, time 3 day) was 178 IU/L and the Na (72 h, time 3 day) was 142 meq/L. For the same compound, the PL (72 h, time 3 day) was 134 mg/dL, the RALB (72 h, time 3 day) was 3 g/dL and the TBIL (72 h, time 3 day) was 0.008 mg/dL. The TC (72 h, time 3 day) was 73.2 mg/dL, the TG (72 h, time 3 day) was 69.6 mg/dL and the TP (72 h, time 3 day) was 5.4 g/dL. The gamma-GTP (72 h, time 3 day) was 2.2 IU/L, the TERMINAL_BW ([…], time 7 day) was 274.3 g and the TERMINAL_BW ([…], time 14 day) was 321.8 g. The TERMINAL_BW ([…], time 28 day) was 408.3 g, the APTT ([…], time 7 day) was 23.4 s and the Bas ([…], time 7 day) was 0%. For the same compound, the Eos ([…], time 7 day) was 1%, the Fbg ([…], time 7 day) was 300 mg/dL and the Hb ([…], time 7 day) was 12.9 g/dL. It also gave a Ht ([…], time 7 day) of 39.7%, a Lym ([…], time 7 day) of 77.8% and an MCH ([…], time 7 day) of 20.4 pg. The MCHC ([…], time 7 day) was 32.5%, the MCV ([…], time 7 day) was 62.4 fL and the Mono ([…], time 7 day) was 2.8%. For the same compound, the Neu ([…], time 7 day) was 17.4%, the PT ([…], time 7 day) was 15.9 s and the Plat ([…], time 7 day) was 106.5 x10_4/uL. It also gave an RBC ([…], time 7 day) of 637.2 x10_4/ul, a Ret ([…], time 7 day) of 6% and a WBC ([…], time 7 day) of 115.8 x10_2/uL. It also gave an APTT ([…], time 14 day) of 22.2 s, a Bas ([…], time 14 day) of 0% and an Eos ([…], time 14 day) of 0.8%. It also gave a Fbg ([…], time 14 day) of 310.6 mg/dL, a Hb ([…], time 14 day) of 12.8 g/dL and a Ht ([…], time 14 day) of 39.4%. For the same compound, the Lym ([…], time 14 day) was 80.6%, the MCH ([…], time 14 day) was 21 pg and the MCHC ([…], time 14 day) was 32.4%. It also gave an MCV ([…], time 14 day) of 64.8 fL, a Mono ([…], time 14 day) of 1.8% and a Neu ([…], time 14 day) of 16.2%. The PT ([…], time 14 day) was 16.1 s, the Plat ([…], time 14 day) was 107.7 x10_4/uL and the RBC ([…], time 14 day) was 608.6 x10_4/ul. For the same compound, the Ret ([…], time 14 day) was 8.8%, the WBC ([…], time 14 day) was 96.5 x10_2/uL and the APTT ([…], time 28 day) was 25.3 s. It also gave a Bas ([…], time 28 day) of 0%, an Eos ([…], time 28 day) of 1% and a Fbg ([…], time 28 day) of 307.6 mg/dL. It also gave a Hb ([…], time 28 day) of 14.8 g/dL, a Ht ([…], time 28 day) of 43.5% and a Lym ([…], time 28 day) of 83.2%. It also gave an MCH ([…], time 28 day) of 19.2 pg, an MCHC ([…], time 28 day) of 34.1% and an MCV ([…], time 28 day) of 56.3 fL. For the same compound, the Mono ([…], time 28 day) was 1.6%, the Neu ([…], time 28 day) was 13.8% and the PT ([…], time 28 day) was 16.1 s. It also gave a Plat ([…], time 28 day) of 91.8 x10_4/uL, an RBC ([…], time 28 day) of 774.2 x10_4/ul and a Ret ([…], time 28 day) of 2.9%. For the same compound, the WBC ([…], time 28 day) was 104.4 x10_2/uL, the KIDNEY_L ([…], time 7 day) was 1.2 g and the KIDNEY_R ([…], time 7 day) was 1.2 g. For the same compound, the KIDNEY_TOTAL ([…], time 7 day) was 2.3 g, the KIDNEY_L ([…], time 14 day) was 1.3 g and the KIDNEY_R ([…], time 14 day) was 1.3 g. The KIDNEY_TOTAL ([…], time 14 day) was 2.5 g, the KIDNEY_L ([…], time 28 day) was 1.4 g and the KIDNEY_R ([…], time 28 day) was 1.5 g. For the same compound, the KIDNEY_TOTAL ([…], time 28 day) was 2.9 g, the LIVER ([…], time 7 day) was 13.3 g and the LIVER ([…], time 14 day) was 14.2 g. It also gave an LIVER ([…], time 28 day) of 16.9 g, an A/G ([…], time 7 day) of 1.1 and an ALP ([…], time 7 day) of 1475.8 IU/L. The ALT ([…], time 7 day) was 42.2 IU/L, the AST ([…], time 7 day) was 65 IU/L and the BUN ([…], time 7 day) was 20.4 mg/dL. The CRE ([…], time 7 day) was 0.2 mg/dL, the Ca ([…], time 7 day) was 10.7 mg/dL and the Cl ([…], time 7 day) was 105 meq/L. For the same compound, the DBIL ([…], time 7 day) was 0 mg/dL, the GLC ([…], time 7 day) was 200.4 mg/dL and the IP ([…], time 7 day) was 7.5 mg/dL. It also gave a K ([…], time 7 day) of 4.2 meq/L, an LDH ([…], time 7 day) of 152.8 IU/L and a Na ([…], time 7 day) of 141.4 meq/L. For the same compound, the PL ([…], time 7 day) was 152.6 mg/dL, the RALB ([…], time 7 day) was 3 g/dL and the TBIL ([…], time 7 day) was 0.002 mg/dL. It also gave a TC ([…], time 7 day) of 80.2 mg/dL, a TG ([…], time 7 day) of 113.4 mg/dL and a TP ([…], time 7 day) of 5.6 g/dL. The gamma-GTP ([…], time 7 day) was 2 IU/L, the A/G ([…], time 14 day) was 1.1 and the ALP ([…], time 14 day) was 1564.4 IU/L. For the same compound, the ALT ([…], time 14 day) was 45.6 IU/L, the AST ([…], time 14 day) was 68.8 IU/L and the BUN ([…], time 14 day) was 19 mg/dL. The CRE ([…], time 14 day) was 0.2 mg/dL, the Ca ([…], time 14 day) was 10.6 mg/dL and the Cl ([…], time 14 day) was 104.6 meq/L. It also gave a DBIL ([…], time 14 day) of 0 mg/dL, a GLC ([…], time 14 day) of 211.6 mg/dL and an IP ([…], time 14 day) of 7.1 mg/dL. It also gave a K ([…], time 14 day) of 4.2 meq/L, an LDH ([…], time 14 day) of 164.6 IU/L and a Na ([…], time 14 day) of 140.6 meq/L. For the same compound, the PL ([…], time 14 day) was 147.8 mg/dL, the RALB ([…], time 14 day) was 3 g/dL and the TBIL ([…], time 14 day) was 0.004 mg/dL. For the same compound, the TC ([…], time 14 day) was 70.2 mg/dL, the TG ([…], time 14 day) was 143 mg/dL and the TP ([…], time 14 day) was 5.8 g/dL. The gamma-GTP ([…], time 14 day) was 2.2 IU/L, the A/G ([…], time 28 day) was 0.9 and the ALP ([…], time 28 day) was 1046.8 IU/L. The ALT ([…], time 28 day) was 37.2 IU/L, the AST ([…], time 28 day) was 61.8 IU/L and the BUN ([…], time 28 day) was 19.2 mg/dL. For the same compound, the CRE ([…], time 28 day) was 0.2 mg/dL, the Ca ([…], time 28 day) was 10.5 mg/dL and the Cl ([…], time 28 day) was 104.2 meq/L. The DBIL ([…], time 28 day) was 0 mg/dL, the GLC ([…], time 28 day) was 194.8 mg/dL and the IP ([…], time 28 day) was 6.6 mg/dL. It also gave a K ([…], time 28 day) of 3.8 meq/L, an LDH ([…], time 28 day) of 132.8 IU/L and a Na ([…], time 28 day) of 143.2 meq/L. For the same compound, the PL ([…], time 28 day) was 135 mg/dL, the RALB ([…], time 28 day) was 3 g/dL and the TBIL ([…], time 28 day) was 0.01 mg/dL. It also gave a TC ([…], time 28 day) of 67.8 mg/dL, a TG ([…], time 28 day) of 133.6 mg/dL and a TP ([…], time 28 day) of 6.2 g/dL. For the same compound, the gamma-GTP ([…], time 28 day) was 2 IU/L.

Reference: ChEMBL document CHEMBL3885861, “Open TG-GATES”
